US8846669B2, “Oxazolidinone derivative and medical composition containing same” (Legochem Biosciences, Inc., priority 2011, dated 2014)
In brackets after ≈: the same amount, converted by molar mass. Read-outs that look alike come from different tables or passages of the source.

Columns and labels:
Assay in all cases: In vitro antibacterial activity, broth microdilution MIC90
Assay type in all cases: cell-based
[1] = system: Linezolid and Vancomycin Resistant Enterococcus faecium (strain 11); settings: Enterococcus faecium
Method: (§1) MIC90 was measured by broth microdilution method based on CLSI standards [reference: Clinical and Laboratory Standards Institute Document. (2000) Methods for Dilution Antimicrobial Susceptibility Test for Bacteria that Grow Aerobically-Fifth Edition: M7-A5. CLSI, Villanova, Pa.].
(§2) Activities of 12 strains including Staphylococcus aureus, Methicillin Resistant Staphylococcus aureus, Staphylococcus epidermidis, Methicillin Resistant Staphylococcus epidermidis, Enterococcus faecalis, Vancomycin Resistant Enterococcus faecalis, Linezolid and Vancomycin Resistant Enterococcus faecalis, Enterococcus faecium, Vancomycin Resistant Enterococcus faecium, Linezolid and Vancomycin Resistant Enterococcus faecium, and Moraxella catarrhalis, were measured, and results are shown in Table 1 below.
(§3) The final concentration of test material in the antibacterial test was from 0.063 μg/mL (minimum) to 128 μg/mL (maximum), and the final concentration of DMSO used as an excipient was 2.5% (V/V). Linezolid represented by Formula B below (manufactured by Pfizer) was used as a control and bacterial activity thereof was compared with those of the test materials.

[2] = system: Enterococcus faecium; settings: Enterococcus faecium
Method: as §1, §2, §3

[3] = system: Linezolid and Vancomycin Resistant Enterococcus faecalis; settings: for MIC90: Enterococcus faecalis
Method: as §1, §2, §3

[4] = system: Methicillin Resistant Staphylococcus epidermidis; settings: Staphylococcus epidermidis
Method: as §1, §2, §3

[5] = system: Vancomycin Resistant Enterococcus faecium; settings: Enterococcus faecium
Method: as §1, §2, §3

[6] = system: Staphylococcus aureus; settings: Staphylococcus aureus
Method: as §1, §2, §3

[7] = system: Methicillin Resistant Staphylococcus aureus; settings: Staphylococcus aureus
Method: as §1, §2, §3

[8] = system: Staphylococcus epidermidis; settings: Staphylococcus epidermidis
Method: as §1, §2, §3

[9] = system: Vancomycin Resistant Enterococcus faecalis; settings: Enterococcus faecalis
Method: as §1, §2, §3

[10] = system: Linezolid and Vancomycin Resistant Enterococcus faecium (strain 10); settings: Enterococcus faecium
Method: as §1, §2, §3

[11] = system: Enterococcus faecalis; settings: Enterococcus faecalis
Method: as §1, §2, §3

[12] = system: Moraxella catarrhalis; settings: Moraxella catarrhalis
Method: as §1, §2, §3

[13] = strain 11, E. faecium VanA LR, read-out: MIC90
[14] = strain 8, E. faecium, read-out: MIC90
[15] = strain 7, E. faecalis VanA LR, read-out: MIC90
[16] = strain 4, S. epidermidis MR, read-out: MIC90
[17] = strain 9, E. faecium VanA, read-out: MIC90
[18] = strain 12, M. catarrhalis, read-out: MIC90
[19] = strain 1, S. aureus, read-out: MIC90
[20] = strain 2, S. aureus MR, read-out: MIC90
[21] = strain 3, S. epidermidis, read-out: MIC90
[22] = strain 6, E. faecalis VanA, read-out: MIC90
[23] = strain 10, E. faecium VanA LR, read-out: MIC90
[24] = strain 5, E. faecalis, read-out: MIC90

Compound	MIC90 [1] [µg/mL]	MIC90 [2] [µg/mL]	MIC90 [3] [µg/mL]	MIC90 [4] [µg/mL]	MIC90 [5] [µg/mL]	MIC90 [6] [µg/mL]	MIC90 [7] [µg/mL]	MIC90 [8] [µg/mL]	MIC90 [9] [µg/mL]	MIC90 [10] [µg/mL]	MIC90 [11] [µg/mL]	MIC90 [12] [µg/mL]	also measured
CC(=O)NC[C@H]1CN(c2ccc(-c3ccc(N4C=NN(CC(=O)O)CC4)nc3)c(F)c2)C(=O)O1 [Compound 10]	8 (≈ 17 µM)	1 (≈ 2.13 µM)	8 (≈ 17 µM)	2 (≈ 4.25 µM)	2 (≈ 4.25 µM)	1 (≈ 2.13 µM)	2 (≈ 4.25 µM)	1 (≈ 2.13 µM)	2 (≈ 4.25 µM)	8 (≈ 17 µM)	1 (≈ 2.13 µM)	–	–
CC(=O)NC[C@H]1CN(c2ccc(-c3ccc(N4C=NN(C(=O)CO)CC4)nc3)c(F)c2)C(=O)O1 [Compound 11]	1 (≈ 2.13 µM)	0.063 (≈ 0.134 µM)	0.5 (≈ 1.06 µM)	0.25 (≈ 0.531 µM)	0.125 (≈ 0.266 µM)	0.063 (≈ 0.134 µM)	0.25 (≈ 0.531 µM)	0.063 (≈ 0.134 µM)	0.125 (≈ 0.266 µM)	0.5 (≈ 1.06 µM)	0.125 (≈ 0.266 µM)	1 (≈ 2.13 µM)	antibacterial activity against linezolid-resistant bacteria (in words) ([3]; Enterococcus faecalis and Enterococcus faecium which are resistant to linezolid): very high antibacterial activity
CC(=O)NC[C@H]1CN(c2ccc(-c3ccc(N4C=NN(C(=O)COC(C)=O)CC4)nc3)c(F)c2)C(=O)O1 [Compound 12]	1 (≈ 1.95 µM)	0.063 (≈ 0.123 µM)	1 (≈ 1.95 µM)	0.25 (≈ 0.488 µM)	0.25 (≈ 0.488 µM)	0.125 (≈ 0.244 µM)	0.25 (≈ 0.488 µM)	0.125 (≈ 0.244 µM)	0.25 (≈ 0.488 µM)	1 (≈ 1.95 µM)	0.125 (≈ 0.244 µM)	0.5 (≈ 0.976 µM)	–
CC(=O)NC[C@H]1CN(c2ccc(-c3ccc(N4C=NN(C(=O)COC(=O)CCC(=O)O)CC4)nc3)c(F)c2)C(=O)O1 [Compound 13]	–	–	–	–	–	–	–	–	–	–	–	–	MIC90 [1, 13]: 2 µg/mL (≈ 3.51 µM); MIC90 [2, 14]: 2 µg/mL (≈ 3.51 µM); MIC90 [3, 15]: 2 µg/mL (≈ 3.51 µM); MIC90 [4, 16]: 2 µg/mL (≈ 3.51 µM); MIC90 [5, 17]: 1 µg/mL (≈ 1.75 µM); MIC90 [12, 18]: 2 µg/mL (≈ 3.51 µM); MIC90 [6, 19]: 1 µg/mL (≈ 1.75 µM); MIC90 [7, 20]: 2 µg/mL (≈ 3.51 µM); MIC90 [8, 21]: 1 µg/mL (≈ 1.75 µM); MIC90 [9, 22]: 1 µg/mL (≈ 1.75 µM); MIC90 [10, 23]: 2 µg/mL (≈ 3.51 µM); MIC90 [11, 24]: 1 µg/mL (≈ 1.75 µM)
CNC(=O)N1CCN(c2ccc(-c3ccc(N4C[C@H](CNC(C)=O)OC4=O)cc3F)cn2)C=N1 [Compound 16]	2 (≈ 4.26 µM)	0.5 (≈ 1.07 µM)	1 (≈ 2.13 µM)	1 (≈ 2.13 µM)	0.5 (≈ 1.07 µM)	0.25 (≈ 0.533 µM)	1 (≈ 2.13 µM)	0.25 (≈ 0.533 µM)	0.5 (≈ 1.07 µM)	2 (≈ 4.26 µM)	0.25 (≈ 0.533 µM)	2 (≈ 4.26 µM)	–
CC(=O)NC[C@H]1CN(c2ccc(-c3ccc(N4C=NN(C(N)=O)CC4)nc3)c(F)c2)C(=O)O1 [Compound 17]	2 (≈ 4.39 µM)	0.25 (≈ 0.549 µM)	1 (≈ 2.2 µM)	0.5 (≈ 1.1 µM)	0.25 (≈ 0.549 µM)	0.125 (≈ 0.274 µM)	0.5 (≈ 1.1 µM)	0.25 (≈ 0.549 µM)	0.25 (≈ 0.549 µM)	2 (≈ 4.39 µM)	0.25 (≈ 0.549 µM)	2 (≈ 4.39 µM)	–
CC(=O)NC[C@H]1CN(c2ccc(-c3ccc(N4C=NN(C(=O)CN)CC4)nc3)c(F)c2)C(=O)O1 [Compound 19]	2 (≈ 4.26 µM)	0.25 (≈ 0.533 µM)	2 (≈ 4.26 µM)	0.5 (≈ 1.07 µM)	0.5 (≈ 1.07 µM)	0.25 (≈ 0.533 µM)	0.5 (≈ 1.07 µM)	0.25 (≈ 0.533 µM)	0.5 (≈ 1.07 µM)	2 (≈ 4.26 µM)	0.5 (≈ 1.07 µM)	1 (≈ 2.13 µM)	–
CC(=O)NC[C@H]1CN(c2ccc(-c3ccc(N4C=NN(C(=O)C5COC(C)(C)O5)CC4)nc3)c(F)c2)C(=O)O1 (some centres unmarked) [Compound 20]	8 (≈ 14.8 µM)	2 (≈ 3.7 µM)	8 (≈ 14.8 µM)	4 (≈ 7.4 µM)	2 (≈ 3.7 µM)	2 (≈ 3.7 µM)	8 (≈ 14.8 µM)	4 (≈ 7.4 µM)	2 (≈ 3.7 µM)	8 (≈ 14.8 µM)	2 (≈ 3.7 µM)	8 (≈ 14.8 µM)	–
CC(=O)NC[C@H]1CN(c2ccc(-c3ccc(N4C=NN(C(=O)C(O)CO)CC4)nc3)c(F)c2)C(=O)O1 (some centres unmarked) [Compound 21]	–	–	–	–	–	–	–	–	–	–	–	–	MIC90 [1, 13]: 4 µg/mL (≈ 7.99 µM); MIC90 [2, 14]: 0.5 µg/mL (≈ 0.999 µM); MIC90 [3, 15]: 2 µg/mL (≈ 4 µM); MIC90 [4, 16]: 1 µg/mL (≈ 2 µM); MIC90 [5, 17]: 0.5 µg/mL (≈ 0.999 µM); MIC90 [12, 18]: 4 µg/mL (≈ 7.99 µM); MIC90 [6, 19]: 0.25 µg/mL (≈ 0.5 µM); MIC90 [7, 20]: 1 µg/mL (≈ 2 µM); MIC90 [8, 21]: 0.5 µg/mL (≈ 0.999 µM); MIC90 [9, 22]: 1 µg/mL (≈ 2 µM); MIC90 [10, 23]: 2 µg/mL (≈ 4 µM); MIC90 [11, 24]: 1 µg/mL (≈ 2 µM)
C#CCN1C=NN(c2ccc(-c3ccc(N4C[C@H](CNC(C)=O)OC4=O)cc3F)cn2)CC1 [Compound 55]	4 (≈ 8.88 µM)	2 (≈ 4.44 µM)	4 (≈ 8.88 µM)	4 (≈ 8.88 µM)	2 (≈ 4.44 µM)	1 (≈ 2.22 µM)	4 (≈ 8.88 µM)	2 (≈ 4.44 µM)	2 (≈ 4.44 µM)	4 (≈ 8.88 µM)	1 (≈ 2.22 µM)	–	–
